Assay results from US11858942B2, “Triazolotriazine derivatives as A2A receptor antagonists” (ZHEJIANG VIMGREEN PHARMACEUTICALS, LTD., priority 2018, dated 2024).

Biological target: T1, A2AR (hADORA2A-HEK293 cells) (Homo sapiens, UniProt P29274)
T1 construct: expressed in transfected cells; host or cells: HEK293 (hADORA2A-HEK293)
Assay: functional cAMP production assay (NECA-stimulated cAMP production, TR-FRET)
Format: cell-based
Details: inhibition of NECA (EC80)-stimulated cAMP production in A2AR-expressing HEK293 cells; read-out: A2AR Potency
Experimental: The antagonistic activities of the triazolotriazine derivatives of the present invention were measured in a functional cAMP production assay. The assay consists of NECA stimulation of cAMP production and its inhibition by A2AR antagonists in A2AR-expressing HEK293 cells (hADORA2A-HEK293). All cells were cultured in complete medium at 37° C. in 5% CO2. The cells were detached with pancreatin and collected at 200 g for 5 min. After resuspending the cells in fresh complete medium, the cell viability is counted using the trypan blue exclusion method. […] After the cells were diluted with Hank's buffered saline solution containing HEPES (5 mM), BSA stabilizer (0.1%) and […] Rolipram (10 μM), cells were loaded into white opaque 384-well plates (˜500 cells/well, 10 μl/well) and incubated with test compound at a suitable concentration range (11 concentrations) for 20 min at room temperature. Then the A2A receptor agonist NECA (final concentration=EC80, which was determined in the same experiment slightly earlier) was added to the sample and the mixture was incubated again for 30 min at 37° C. […] The inhibition rate (%) was calculated according to the following formula. The IC50 values were calculated from concentration−inhibition (%) curves after log transformation.

T1 sequence (P29274 whole entry): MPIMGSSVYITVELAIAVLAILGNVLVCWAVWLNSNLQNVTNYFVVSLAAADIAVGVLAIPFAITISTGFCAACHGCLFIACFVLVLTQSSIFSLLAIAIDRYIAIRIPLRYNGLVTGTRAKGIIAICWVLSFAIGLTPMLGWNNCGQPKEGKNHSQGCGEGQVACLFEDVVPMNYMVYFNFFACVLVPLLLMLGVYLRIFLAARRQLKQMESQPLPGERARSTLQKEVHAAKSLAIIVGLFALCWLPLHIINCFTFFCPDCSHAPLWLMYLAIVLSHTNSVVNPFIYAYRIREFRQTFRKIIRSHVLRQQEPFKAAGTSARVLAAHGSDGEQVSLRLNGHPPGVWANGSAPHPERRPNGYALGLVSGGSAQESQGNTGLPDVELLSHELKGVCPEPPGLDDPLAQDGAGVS

SMILES	IC50 [nM]
Nc1nc(NCCc2ccc(C(=O)NCCN3CCCC3)cc2)nc2nc(-c3ccco3)nn12 [Example 11, 4-(2-((7-Amino-2-(furan-2-yl)-[1,2,4]triazolo[1,5-a][1,3,5]triazin-5-yl)amino)ethyl)-N-(2-(pyrrolidin-1-yl)ethyl)benzamide]	43.4
Nc1nc(NCCc2ccc(C(=O)NCCN3CCOCC3)cc2)nc2nc(-c3ccco3)nn12 [Example 12, 4-(2-((7-Amino-2-(furan-2-yl)-[1,2,4]triazolo[1,5-a][1,3,5]triazin-5-yl)amino)ethyl)-N-(2-morpholinoethyl)benzamide]	27.1
CN1CCN(CCNC(=O)c2ccc(CCNc3nc(N)n4nc(-c5ccco5)nc4n3)cc2)CC1 [Example 13, 4-(2-((7-Amino-2-(furan-2-yl)-[1,2,4]triazolo[1,5-a][1,3,5]triazin-5-yl)amino)ethyl)-N-(2-(4-methylpiperazin-1-yl)ethyl)benzamide]	33
Nc1nc(NCCc2ccc(C(=O)N3CCC(F)(F)CC3)cc2)nc2nc(-c3ccco3)nn12 [Example 16, (4-(2-((7-Amino-2-(furan-2-yl)-[1,2,4]triazolo[1,5-a][1,3,5]triazin-5-yl)amino)ethyl)phenyl)-(4,4-difluoropiperidin-1-yl)methanone]	24
Nc1nc(NCCc2ccc(C(=O)N3CCC(F)CC3)cc2)nc2nc(-c3ccco3)nn12 [Example 17, (4-(2-((7-Amino-2-(furan-2-yl)-[1,2,4]triazolo[1,5-a][1,3,5]triazin-5-yl)amino)ethyl)phenyl)-(4-fluoropiperidin-1-yl)methanone]	7.54
Nc1nc(NCCc2ccc3cnccc3c2)nc2nc(-c3ccco3)nn12 [Example 27, 2-(Furan-2-yl)-N5-(2-(isoquinolin-6-yl)ethyl)-[1,2,4]triazolo[1,5-a][1,3,5]triazine-5,7-diaminee]	9.08
CNC(=O)c1ccc(CCNc2nc(N)n3nc(-c4ccco4)nc3n2)cc1 [Example 35, 4-(2-(7-Amino-2-(furan-2-yl)-[1,2,4]triazolo[1,5-a][1,3,5]triazin-5-ylamino)ethyl)-N-methylbenzamide]	13.8
NC(=O)c1ccc(CCNc2nc(N)n3nc(-c4ccco4)nc3n2)cc1 [Example 36, 4-(2-(7-Amino-2-(furan-2-yl)-[1,2,4]triazolo[1,5-a][1,3,5]triazin-5-ylamino)ethyl)benzamide]	13.3
Nc1nc(NCCc2ccc(C(=O)N3CCCCC3)cc2)nc2nc(-c3ccco3)nn12 [Example 37, (4-(2-(7-Amino-2-(furan-2-yl)-[1,2,4]triazolo[1,5-a][1,3,5]triazin-5-ylamino)ethyl)-phenyl)(piperidin-1-yl)methanone]	6
CC(C)N(C)C(=O)c1ccc(CCNc2nc(N)n3nc(-c4ccco4)nc3n2)cc1 [Example 42, 4-(2-(7-Amino-2-(furan-2-yl)-[1,2,4]triazolo[1,5-a][1,3,5]triazin-5-ylamino)ethyl)-N-isopropyl-N-methylbenzamide]	19.3
CC(C)(CO)NC(=O)c1ccc(CCNc2nc(N)n3nc(-c4ccco4)nc3n2)cc1 [Example 43, 4-(2-(7-Amino-2-(furan-2-yl)-[1,2,4]triazolo[1,5-a][1,3,5]triazin-5-ylamino)ethyl)-N-(1-hydroxy-2-methylpropan-2-yl)benzamide]	17.1
Nc1nc(NCCc2ccc(C(=O)N3CCc4ncccc4C3)cc2)nc2nc(-c3ccco3)nn12 [Example 45, (4-(2-(7-Amino-2-(furan-2-yl)-[1,2,4]triazolo[1,5-a][1,3,5]triazin-5-ylamino)ethyl)phenyl)-(7,8-dihydro-1,6-naphthyridin-6(5H)-yl)methanone]	27.4
Nc1nc(NCCc2ccc(-c3nn[nH]n3)cc2)nc2nc(-c3ccco3)nn12 [Example 125, N5-(4-(2H-Tetrazol-5-yl)phenethyl)-2-(furan-2-yl)-[1,2,4]triazolo[1,5-a][1,3,5]triazine-5,7-diamine]	14.5
